Reference: ChEMBL document CHEMBL5331061, “Design, synthesis, and biological evaluation of Wee1 kinase degraders” (Eur J Med Chem, 2022)
Calls of active or inactive are those of the source. The calls are words filed in the database; no cut-off is given here.

Legend:
MV4-11 [1] = test: Effect on PLK1 expression in human MV4-11 cells at IC50 measured after 6 hrs by Western blot analysis; assay type: functional, cell-based
A498 = test: Antiproliferative activity against human A498 cells assessed as cell growth inhibition measured after 72 hrs by SRB Assay; conditions: A498, 72 h
SUM149PT = test: Antiproliferative activity against human SUM149PT cells assessed as cell growth inhibition measured after 72 hrs by SRB Assay
[2] = target: T1, Protein cereblon/Wee1-like protein kinase (Homo sapiens, UniProt P30291+Q96SW2); test: PROTAC activity at CRBN/Wee1 in human MV4-11 cells assessed as residual Wee1 level at IC50 measured after 6 hrs by Western blot analysis (reference value: 100%); assay type: cell-based
T1 sequence (P30291 whole entry, looked up): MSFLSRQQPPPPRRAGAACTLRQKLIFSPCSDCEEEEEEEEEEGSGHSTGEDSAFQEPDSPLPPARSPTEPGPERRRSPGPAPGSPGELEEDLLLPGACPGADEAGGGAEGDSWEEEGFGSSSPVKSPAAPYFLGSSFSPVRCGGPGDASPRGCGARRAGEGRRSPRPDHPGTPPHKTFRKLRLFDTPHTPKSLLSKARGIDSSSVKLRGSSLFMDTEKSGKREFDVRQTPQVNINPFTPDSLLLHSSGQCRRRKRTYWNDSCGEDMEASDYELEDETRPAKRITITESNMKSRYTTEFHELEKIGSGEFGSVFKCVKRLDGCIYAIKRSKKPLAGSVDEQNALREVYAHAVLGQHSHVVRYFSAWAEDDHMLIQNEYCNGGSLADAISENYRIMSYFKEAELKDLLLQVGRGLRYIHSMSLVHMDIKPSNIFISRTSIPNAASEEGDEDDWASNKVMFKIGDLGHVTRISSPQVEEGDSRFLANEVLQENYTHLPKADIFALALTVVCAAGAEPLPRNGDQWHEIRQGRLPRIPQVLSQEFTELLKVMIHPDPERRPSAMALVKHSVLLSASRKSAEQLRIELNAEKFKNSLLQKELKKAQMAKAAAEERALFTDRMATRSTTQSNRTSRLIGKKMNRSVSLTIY
T1 sequence (Q96SW2 whole entry, looked up): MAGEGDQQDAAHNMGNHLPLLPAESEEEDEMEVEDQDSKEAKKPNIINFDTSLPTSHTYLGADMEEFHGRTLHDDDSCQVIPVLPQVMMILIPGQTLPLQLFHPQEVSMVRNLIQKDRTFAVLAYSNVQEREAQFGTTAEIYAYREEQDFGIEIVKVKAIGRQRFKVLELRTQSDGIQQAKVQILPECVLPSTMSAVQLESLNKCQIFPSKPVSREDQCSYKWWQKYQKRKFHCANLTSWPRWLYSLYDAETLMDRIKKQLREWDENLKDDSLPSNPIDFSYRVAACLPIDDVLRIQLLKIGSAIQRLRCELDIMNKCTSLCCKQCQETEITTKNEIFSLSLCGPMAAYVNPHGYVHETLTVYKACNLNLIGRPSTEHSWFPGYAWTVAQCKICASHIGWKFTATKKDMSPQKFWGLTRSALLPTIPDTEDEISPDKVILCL

MV4-11 [3] = test: Antiproliferative activity against human MV4-11 cells assessed as cell growth inhibition measured after 72 hrs by SRB Assay; conditions: MV4-11, 72 h
[4] = target: Serine/threonine-protein kinase PLK1 (Homo sapiens, UniProt P53350); test: Inhibition of PLK1 (unknown origin)
Serine/threonine-protein kinase PLK1, sequence (P53350 whole entry): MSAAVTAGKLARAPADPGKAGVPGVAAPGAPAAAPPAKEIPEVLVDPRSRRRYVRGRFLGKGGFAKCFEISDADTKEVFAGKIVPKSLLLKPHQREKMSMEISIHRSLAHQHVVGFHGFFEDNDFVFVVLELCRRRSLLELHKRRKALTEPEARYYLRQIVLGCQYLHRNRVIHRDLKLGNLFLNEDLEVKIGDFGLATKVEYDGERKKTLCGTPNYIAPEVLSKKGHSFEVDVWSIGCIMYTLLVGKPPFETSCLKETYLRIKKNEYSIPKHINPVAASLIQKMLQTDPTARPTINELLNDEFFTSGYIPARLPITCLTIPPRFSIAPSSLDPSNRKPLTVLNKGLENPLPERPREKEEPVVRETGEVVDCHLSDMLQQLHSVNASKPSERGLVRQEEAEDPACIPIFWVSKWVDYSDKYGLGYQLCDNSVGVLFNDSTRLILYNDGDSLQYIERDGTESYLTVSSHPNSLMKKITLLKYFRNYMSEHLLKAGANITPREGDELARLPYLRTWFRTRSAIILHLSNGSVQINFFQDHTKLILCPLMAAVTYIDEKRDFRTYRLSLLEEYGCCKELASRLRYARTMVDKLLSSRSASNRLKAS

[5] = Effect on Wee1 level in human MV4-11 cells assessed as Wee1 level at 50 nM measured after 6 hrs by Immunoblotting method relative to control (reference value: 100%); assay type: functional
[6] = Cmax in ICR mouse at 20 mg/kg, po measured upto 360 mins; assay type: ADME, organism-based; set-up: time < 360 min, dose 20 mg/kg, route po; conditions: in vivo
[7] = Tmax in ICR mouse at 20 mg/kg, po measured upto 360 mins; assay type: ADME, organism-based; conditions: in vivo
[8] = AUClast in ICR mouse at 20 mg/kg, po measured upto 360 mins; assay type: ADME, organism-based; set-up: time < 360 min, dose 20 mg/kg, route po; conditions: in vivo
[9] = Effect on Wee1 level in human MV4-11 cells assessed as residual Wee1 level at 12.5 nM measured after 6 hrs by Immunoblotting method (reference value: 100%); assay type: functional
[10] = Effect on Wee1 level in human MV4-11 cells assessed as Wee1 level at 25 nM measured after 6 hrs by Immunoblotting method relative to control (reference value: 100%); assay type: functional
[11] = Half life in ICR mouse at 20 mg/kg, po measured upto 360 mins; assay type: ADME, organism-based; conditions: in vivo
[12] = Effect on Wee1 level in human MV4-11 cells assessed as Wee1 level at 100 nM measured after 6 hrs by Immunoblotting method relative to control (reference value: 100%); assay type: functional
[13] = target: T1, Protein cereblon/Wee1-like protein kinase; test: PROTAC activity at CRBN/Wee1 in human MV4-11 cells assessed as reduction in Wee1 level measured after 72 hrs by Western blot analysis; assay type: cell-based
[14] = Effect on Wee1 level in human MV4-11 cells assessed as residual Wee1 level at 6.25 nM measured after 6 hrs by Immunoblotting method (reference value: 100%); assay type: functional
[15] = target: Wee1-like protein kinase (Homo sapiens) (UniProt P30291); test: Inhibition of Wee1 in human MV4-11 cells at IC50 measured after 6 hrs by Western blot analysis relative to control; assay type: cell-based
Wee1-like protein kinase (Homo sapiens), sequence (P30291 whole entry, looked up): as the sequence (P30291 whole entry, looked up) above

[16] = Observed MRTinfinity ICR mouse at 20 mg/kg, po measured upto 360 mins; assay type: ADME, organism-based; conditions: in vivo
[17] = Observed AUCinfinity ICR mouse at 20 mg/kg, po measured upto 360 mins; assay type: ADME, organism-based; set-up: time < 360 min, dose 20 mg/kg, route po; conditions: in vivo

Row | Structure (SMILES) | Activity (MV4-11 [1]) | IC50 (A498) [µM] | IC50 (SUM149PT) [µM] | Activity [2] [%] | IC50 (MV4-11 [3]) [nM] | also measured
1 | C=CCn1c(=O)c2cnc(Nc3ccc(N4CCN(CC(=O)NCCCCC(=O)NCCNc5cccc6c5C(=O)N(C5CCC(=O)NC5=O)C6=O)CC4)cc3)nc2n1-c1cccc(C(C)(C)O)n1 (configuration not stated) | inactive | > 10 | > 10 | 22 | 2000 | 
2 | C=CCn1c(=O)c2cnc(Nc3ccc(N4CCN(CC(=O)NCCCCC(=O)NCc5ccc(CNc6cccc7c6C(=O)N(C6CCC(=O)NC6=O)C7=O)cc5)CC4)cc3)nc2n1-c1cccc(C(C)(C)O)n1 (configuration not stated) | inactive | > 10 | > 10 | 27 | 6000 | IC50 [4]: > 10 µM
3 | C=CCn1c(=O)c2cnc(Nc3ccc(N4CCN(CC(=O)NCCOCCOCCOCCOCCOCCOCCOCCNc5cccc6c5C(=O)N(C5CCC(=O)NC5=O)C6=O)CC4)cc3)nc2n1-c1cccc(C(C)(C)O)n1 (configuration not stated) | inactive | > 10 | > 10 | 21 | 716 | IC50 [4]: > 10 µM
4 | C=CCn1c(=O)c2cnc(Nc3ccc(N4CCN(CC(=O)NCCOCCOCCOCCOCCOCCNc5cccc6c5C(=O)N(C5CCC(=O)NC5=O)C6=O)CC4)cc3)nc2n1-c1cccc(C(C)(C)O)n1 (configuration not stated) | inactive | 10 | > 10 | 26 | 2150 | IC50 [4]: > 10 µM
5 | C=CCn1c(=O)c2cnc(Nc3ccc(N4CCN(CC(=O)NCCOCCOCCOCCOCCNc5cccc6c5C(=O)N(C5CCC(=O)NC5=O)C6=O)CC4)cc3)nc2n1-c1cccc(C(C)(C)O)n1 (configuration not stated) | inactive | 5.83 | 3.14 | 49 | 408 | 
6 | C=CCn1c(=O)c2cnc(Nc3ccc(N4CCN(CC(=O)NCCOCCOCCOCCOCCOCCOCCNc5cccc6c5C(=O)N(C5CCC(=O)NC5=O)C6=O)CC4)cc3)nc2n1-c1cccc(C(C)(C)O)n1 (configuration not stated) | inactive | > 10 | > 10 | 33 | 1130 | 
7 | C=CCn1c(=O)c2cnc(Nc3ccc(N4CCN(CC(=O)NCCCCCNc5cccc6c5C(=O)N(C5CCC(=O)NC5=O)C6=O)CC4)cc3)nc2n1-c1cccc(C(C)(C)O)n1 (configuration not stated) | inactive | 6.87 | 2.13 | 32 | 809 | 
8 | C=CCn1c(=O)c2cnc(Nc3ccc(N4CCN(CC(=O)NCCOCCOCCOCCNc5cccc6c5C(=O)N(C5CCC(=O)NC5=O)C6=O)CC4)cc3)nc2n1-c1cccc(C(C)(C)O)n1 (configuration not stated) | inactive | > 10 | > 10 | 37 | 2200 | 
9 | C=CCn1c(=O)c2cnc(Nc3ccc(N4CCN(C)CC4)cc3)nc2n1-c1cccc(C(C)(C)O)n1 [ADAVOSERTIB] | inactive | 0.215 | 0.536 |  | 133 | Activity [5]: 70%; Cmax [6]: 681 ng/mL; Tmax [7]: 15 min; AUC(0-t) at 6 h [8]: 915 ng·h/mL; Activity [9]: 98%; Activity [10]: 90%; half-life [11]: 429 min; Activity [12]: 120%; Activity [13]: inactive; Activity [14]: 90%; inhibition [15]: 94%; MRT inf [16]: 2.84 h; IC50 [4]: 0.268 µM; AUC(0-inf) [17]: 934 ng·h/mL
10 | C=CCn1c(=O)c2cnc(Nc3ccc(N4CCN(CC(=O)NCCOCCOCCNc5cccc6c5C(=O)N(C5CCC(=O)NC5=O)C6=O)CC4)cc3)nc2n1-c1cccc(C(C)(C)O)n1 (configuration not stated) | inactive | > 10 | 6.04 | 21 | 1000 | IC50 [4]: > 10 µM
11 | C=CCn1c(=O)c2cnc(Nc3ccc(N4CCN(CC(=O)NCCCNc5cccc6c5C(=O)N(C5CCC(=O)NC5=O)C6=O)CC4)cc3)nc2n1-c1cccc(C(C)(C)O)n1 (configuration not stated) | inactive | 7.74 | 1.55 | 37 | 215 | 
12 | C=CCn1c(=O)c2cnc(Nc3ccc(N4CCN(CC(=O)NCCCCCCNc5cccc6c5C(=O)N(C5CCC(=O)NC5=O)C6=O)CC4)cc3)nc2n1-c1cccc(C(C)(C)O)n1 (configuration not stated) | inactive | 6.65 | 2.81 | 49 | 1110 | 
13 | C=CCn1c(=O)c2cnc(Nc3ccc(N4CCN(CC(=O)NCCOCCOCCOCCOCCOCCOCCOCCOCCNc5cccc6c5C(=O)N(C5CCC(=O)NC5=O)C6=O)CC4)cc3)nc2n1-c1cccc(C(C)(C)O)n1 (configuration not stated) | inactive | > 10 | 8.85 | 28 | 523 | 
14 | C=CCn1c(=O)c2cnc(Nc3ccc(N4CCN(CC(=O)NCCCCC(=O)NCCOc5cccc6c5C(=O)N(C5CCC(=O)NC5=O)C6=O)CC4)cc3)nc2n1-c1cccc(C(C)(C)O)n1 (configuration not stated) | inactive | > 10 | > 10 | 23 | 5000 | 
15 | C=CCn1c(=O)c2cnc(Nc3ccc(N4CCN(CC(=O)NCCCCNc5cccc6c5C(=O)N(C5CCC(=O)NC5=O)C6=O)CC4)cc3)nc2n1-c1cccc(C(C)(C)O)n1 (configuration not stated) | inactive | 5.38 | 1.59 | 21 | 226 | 
16 | C=CCn1c(=O)c2cnc(Nc3ccc(N4CCN(CCCCCNc5cccc6c5C(=O)N(C5CCC(=O)NC5=O)C6=O)CC4)cc3)nc2n1-c1cccc(C(C)(C)O)n1 (configuration not stated) | inactive | 1.31 | 1.26 | 24 | 182 | 
17 | C=CCn1c(=O)c2cnc(Nc3ccc(N4CCN(CC(=O)NCCCCC(=O)NCc5ccc(COc6cccc7c6C(=O)N(C6CCC(=O)NC6=O)C7=O)cc5)CC4)cc3)nc2n1-c1cccc(C(C)(C)O)n1 (configuration not stated) | inactive | > 10 | > 10 | 45 | 7000 | 
